Row | Structure (SMILES) | melting point
1 | O=C(O)c1c(-c2ccccc2)nnc2ccccc12 | 216 °C
2 | NNc1cc(C(F)(F)F)cc(C(F)(F)F)c1 | 82 °C
3 | CCOc1cc2c(cc1OC)CCNC2CC(C)C (centres undefined) | 151 °C
4 | CC(=O)CS(=O)(=O)c1ccc(Cl)cc1 | 89 to 91 °C
5 | Cc1nnc(-c2ccccc2)c2noc(C)c12 | 180 °C
6 | Cc1ccccc1Nc1[nH]c(=S)nnc1-c1ccccc1 | 294 °C
7 | CC(C=CC=C(C)C=CC1=C(C)CCCC1(C)C)=CC=CC=C(C)C=CC=C(C)C=CC1=C(C)CC(O)CC1(C)C (centres undefined) | 160 °C
8 | O=C1OC(c2ccccc2)=NC1=Cc1ccc(Br)cc1 | 192 to 193 °C
9 | OCC1OC(n2cnc3cncnc32)C(O)C1O (centres undefined) | 181 °C
10 | O=C1CCCCCCCCCCC(=O)OCCO1 | 18 °C
11 | CC(C(=O)O)c1ccc(N2CC=CC2)c(Cl)c1 (centres undefined) | 99 °C
12 | CCc1c2c(nc3ccc(OC(=O)N4CCC(N5CCCCC5)CC4)cc13)-c1cc3c(c(=O)n1C2)COC(=O)C3(O)CC (centres undefined) | 222 °C
13 | CC(Nc1cc(C)ccn1)=C(C#N)C(=O)c1ccccc1 | 102 to 103 °C
14 | CC(=O)Oc1cc(C(F)(F)F)ccc1C(=O)O | 121 °C
15 | CSc1nc(=O)n2ccc(C)cc2n1 | 170 to 173 °C
16 | CCN(CC)C(=O)C1=C(C)NC(=O)NC1c1ccccc1 (centres undefined) | 181 °C
17 | N#CCS(=O)(=O)c1ccc(Cl)cc1 | 171 °C
18 | CCOC(=O)c1[nH]c(C)c(S(=O)(=O)Cl)c1C | 150 °C
19 | CC(=O)Nc1ccc(OC(F)(F)F)cc1 | 115 to 117 °C
20 | CCOC(=O)c1ccc2cn[nH]c2c1 | 125 °C
21 | COc1cc(O)c2c(=O)c(-c3ccc(O)cc3)coc2c1 | 240 °C
22 | Nc1cccc2nonc12 | 109 to 111 °C
23 | CCN(O)CC | 10 °C

Row | Structure (SMILES) | melting point
24 | C=C(C)C(=O)NCO | -37 °C
25 | CCOC(=O)C1=C(C)OC(N)=C(c2nc3ccccc3s2)C1c1ccc(Cl)cc1 (centres undefined) | 189 °C
26 | CC(=O)Nc1ccc(Br)c(C(=O)O)c1 | 186 to 188 °C
27 | C1COCCNCCOCCOCCN1 | 89 to 92 °C
28 | COc1ncc(F)cc1F | 38 °C
29 | CC/C=C\C/C=C\C/C=C\CCCCCCCC(=O)O | -16.5 °C
30 | O=C1C2(CCCCC2)C(=O)C12CCCCC2 | 166 °C
31 | CC(Oc1ccc(Oc2cnc3cc(Cl)ccc3n2)cc1)C(=O)OCC1CCCO1 (centres undefined) | 64 °C
32 | O=c1oc2ccccc2c(O)c1C(CC(O)c1ccc(-c2ccc(Br)cc2)cc1)c1ccccc1 (centres undefined) | 199 °C
33 | Cc1nc2ccccc2n1CC(=O)O | 260 to 262 °C
34 | CC1C(NC(=O)C(=NOC(C)(C)C(=O)O)c2csc(N)n2)C(=O)N1S(=O)(=O)O (centres undefined) | 277 °C
35 | Cn1c(=O)c(C2=NNC(=O)C2=NNc2ccc(Br)cc2)c(O)c2ccccc21 | 260 °C
36 | COC1=C(OC)C(=O)C(C)=C(C)C1=O | 62.5 °C
37 | OCCCCCCC(F)(F)C(F)(F)C(F)(F)C(F)(F)C(F)(F)C(F)(F)C(F)(F)C(F)(F)F | 56 °C
38 | O=C1Cc2cccc(F)c21 | 41 °C
39 | Ic1c(-c2ccccc2)cccc1-c1ccccc1 | 115 °C
40 | CCOC(=O)C1CCN(Cc2cccc(N)c2)CC1 | 42 to 46 °C
41 | COC(=O)NCCc1ccccc1NC(C)=O | 107 °C
42 | O=C(O)C=Cc1ccc([N+](=O)[O-])cc1 | 289 °C
43 | O=C1NC(=O)C(=Cc2ccc(Cl)cc2)C(=O)N1 | 243 °C
44 | CCOC(=O)c1cc(C)n(Cn2nc(C(=O)OCC)cc2C)n1 | 130 °C
45 | N#C/C(=N/Nc1cccc(C(F)(F)F)c1)c1nc2ccccc2c(=O)[nH]1 | 238 °C
46 | O=C(O)CSc1ccnc2cc(Cl)ccc12 | 223 to 225 °C

Row | Structure (SMILES) | melting point
47 | CC(=O)C(N=Nc1ccccc1)C(C)=O | 87 °C
48 | OCc1ccc(-c2cccnc2)cc1 | 106 to 107 °C
49 | O=C(NCc1ccc(S(=O)(=O)Cl)s1)c1ccccc1 | 123 to 125 °C
50 | Clc1nccc(-c2cccs2)n1 | 127 to 129 °C
51 | Cc1ccc(S(=O)(=O)n2cccc2)cc1 | 101 °C
52 | Cc1nnc(SCc2ccccc2)n1N=Cc1ccc(N(C)C)cc1 | 47 to 49 °C
53 | Nc1c(I)cc(I)c(C(=O)N(CCC(=O)O)c2ccccc2)c1I | 134 °C
54 | CC12COC(=O)CC1CCC1C2CCC2(C)C1CCC2(C)O (centres undefined) | 236 °C
55 | Oc1cc(C(F)(F)F)nc(S)n1 | 251 °C
56 | CN1C(=O)C(=NNc2cccc(Cl)c2)C(=O)N(C)C1=O | 202 °C
57 | CC(O)CNCCN (centres undefined) | -50 °C
58 | CC(C)(C)C(=O)Nc1ccncc1C=O | 60 to 64 °C
59 | O=C(O)Cc1ccc(CO)cc1 | 133 °C
60 | COP(=S)(Oc1cc(Cl)c(Br)cc1Cl)c1ccccc1 (centres undefined) | 70.4 °C
61 | CCOC(=O)c1cnc2sc(C(F)(F)F)nn2c1=N | 198 °C
62 | COc1ccc(C(O)C(O)c2ccccc2)cc1 (centres undefined) | 129 °C
63 | Cc1cc(N)ccc1O | 176 °C
64 | Cc1c(CCl)c(C)c2c(c1CCl)CC2 | 92 °C
65 | CC(=O)c1ccc(C2CC2Cl)cc1 (centres undefined) | 45 °C
66 | CCCC(C)c1ccccc1 (centres undefined) | -70 °C
67 | Cc1cccc(C)c1NC(=O)C1C2C=CC(C2)C1C(=O)O (centres undefined) | 167 °C
68 | N#Cc1c(C(F)(F)F)cc(-c2cccnc2)[nH]c1=O | 280 to 281 °C
69 | COc1ccc(C(=O)c2ccc(OC)cc2)cc1 | 144 °C

Row | Structure (SMILES) | melting point
70 | CC(=O)C=CC1C(C)=CCCC1(C)C (centres undefined) | < 25 °C
71 | O=Cc1ccc2c(c1)C(=O)c1c(Cl)c(Cl)c(Cl)c(Cl)c1C2=O | 183 °C
72 | OCCSCCSCCO | 64 to 68 °C
73 | CCC1OC(=O)C(C)C(OC2OC(C)CC(N(C)C)C2O)C(C)CC(C)C(=O)C=CC1(C)O (centres undefined) | 196 °C
74 | O=C1/C(=C/c2ccccc2O)SC(=S)N1CN(CCCl)CCCl | 233 °C
75 | Cc1cc(C)c(N)c(C(O)c2ccccc2)c1 (centres undefined) | 125 °C
76 | NC(=O)c1nn(-c2ccccc2)c2ncnc(N)c12 | 295 °C
77 | O=P(c1ccccc1)(c1ccccc1)C1C=C(c2ccccc2)C=C(c2ccccc2)O1 (centres undefined) | 151 to 152 °C
78 | COc1ccccc1/C=C/C(=O)O | 185 °C
79 | COc1cc(CC#N)ccc1O | 56.5 °C
80 | CC(C)(C)OC(=O)N1CCN(c2ccccc2CO)CC1 | 67 to 71 °C
81 | C=CC1CO1 (centres undefined) | -135 °C
82 | O=C(O)c1cc(Br)cc(Br)c1 | 224 to 226 °C
83 | COC(=O)c1noc(C)c1C(C)=NO | 121 to 124 °C
84 | CC(=O)c1sc(-c2ccc(C(C)(C)C)cc2)cc1N | 179 to 181 °C
85 | COc1ccc(C(=O)Cl)cc1OC1CCCC1 | 46 to 47 °C
86 | CC(C)c1ccc(C(C)C)cc1 | -17 °C
87 | O=C(O)c1ccc(F)c(Cl)c1 | 135 °C
88 | COc1ccc(CNc2ccccn2)cc1 | 121 to 126 °C
89 | O=Cc1cc(Br)ccc1O | 105 °C
